{"source": "paper PMC4201470", "about": "“THDP17 Decreases Ammonia Production through Glutaminase Inhibition. A New Drug for Hepatic Encephalopathy Therapy” (PLoS ONE, 2014)", "key": {"[1]": {"system": "glutaminase activity (PAG) in Caco-2 cells", "assay": "Inhibition assay in cell culture (glutamate produced from glutamine, HPLC)", "type": "cell-based", "text": "Results are shown on Figure 4."}, "[2]": {"system": "Caco-2 cells", "assay": "Cytotoxicity assay in Caco-2 cells after 24 h exposure", "type": "cell-based", "conditions": "Caco-2, 24 h exposure", "procedure": "Regression analysis of dose-response curves and calculation of IC50 were done according to standard procedure using appropriated software.\nAcute toxicity test in animals is typically the first step in the evaluation of the effects of a chemical compound, and its primary purpose is to provide information on potential health hazards that may result from a short-term exposure. […] In the present work, cytotoxicity of a 24 h-exposure to selected inhibitors was evaluated in Caco-2 cells using the MTT method developed by Mosmann and modified by Denizot and Lang."}, "[3]": {"system": "C57BL/6 mice", "assay": "Acute toxicity, oral administration to mice with free access to food and water", "type": "in vivo", "conditions": "for Deaths before 6 h / Deaths before 12 h / Deaths before 24 h: N=4", "procedure": "(§1) Lethal dose was determined by oral administration of the compounds to C57BL/6 mice. Thirty mice were supplied by the Centre of Production and Experimental animal of Espartinas, University of Seville, Spain. The animals were housed ten per cage, and maintained at constant room temperature (22°C ±2°C), with artificial light-dark cycle of 12 h and a relative humidity of 65%−70%, and free access to food and water during 2 weeks for acclimation. All animal procedures were performed with approval from the Sevilla University Animal Ethics Committees, under the guidelines of the directive 86/609/CEE of the European Union. Two assays in different conditions were performed. […] They were sacrificed 24 h latter and a macroscopic analysis of the tissues (lungs, heart, liver, stomach and intestine) was performed. […] In this case, mice were sacrificed 24 or 72 h latter and the same macroscopic analysis was performed.\n(§2) The undiluted compound has low systemic toxicity but a marked local necrotizing and inflammatory effect when it is administered orally. […] There were few fluctuations in histopathological values but no changes appear to be drug-related or of significance. […] Therefore, we repeat the assay using feed animals."}, "[4]": {"system": "C57BL/6 mice", "assay": "Acute toxicity, oral administration to 12 h fasted mice", "type": "in vivo", "conditions": "for Deaths before 6 h / Deaths before 12 h: oral, N=3", "procedure": "as §1, §2"}, "[5]": {"target": "T1, glutaminase obtained from both kidney and intestine mitochondria (K-PAG) (Rattus norvegicus, UniProt P13264)", "T1 construct": "an enriched preparation of glutaminase obtained from both kidney and intestine mitochondria; from tissue; host or cells: rat kidney and intestine mitochondria, solubilised with 1% Triton X-100", "T1 sequence (P13264 55-674)": "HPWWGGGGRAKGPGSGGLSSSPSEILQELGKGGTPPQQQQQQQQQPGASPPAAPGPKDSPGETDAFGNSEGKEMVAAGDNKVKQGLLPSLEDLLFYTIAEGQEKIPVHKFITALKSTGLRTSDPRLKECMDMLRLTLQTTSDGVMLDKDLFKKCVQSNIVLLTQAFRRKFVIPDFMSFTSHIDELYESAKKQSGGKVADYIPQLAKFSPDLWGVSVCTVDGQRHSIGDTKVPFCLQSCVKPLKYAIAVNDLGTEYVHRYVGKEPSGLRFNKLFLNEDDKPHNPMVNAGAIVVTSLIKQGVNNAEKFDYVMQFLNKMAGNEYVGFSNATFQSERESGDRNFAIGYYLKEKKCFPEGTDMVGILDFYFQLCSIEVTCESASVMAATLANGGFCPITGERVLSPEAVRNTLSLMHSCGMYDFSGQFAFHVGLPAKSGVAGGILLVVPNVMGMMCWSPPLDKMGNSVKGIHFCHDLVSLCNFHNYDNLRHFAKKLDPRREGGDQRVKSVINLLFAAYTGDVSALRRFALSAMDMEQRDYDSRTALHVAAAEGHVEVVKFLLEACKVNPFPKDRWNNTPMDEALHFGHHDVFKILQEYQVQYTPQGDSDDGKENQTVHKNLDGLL", "assay": "In vitro inhibition screening of glutaminase activity (Heini method, ammonia released from glutamine)", "type": "biochemical", "procedure": "PAG inhibition analysis by different thiourea derivatives (THDP) was assayed in vitro, using the method of Heini for glutaminase activity determination, adapted to a microtiter procedure. This assay is based on the use of o-phthaldialdehyde/mercaptoethanol as a reagent for estimating ammonia released from glutamine. Briefly, 25 µl samples were added to 35 µl of a mixture of 150 mM potassium phosphate, 171 mM glutamine, 1 mM ammonium chloride, pH 8.0 and then incubated at 37°C for 45 min. The reaction was stopped by adding 10 µl 7% trichloroacetic acid, kept on ice for 15 min and centrifuged 5 min at 1000 × g. […] The samples were kept at room temperature in the dark and absorbance measured at 410 nm with a UV-Visible spectrophotometer (BioRad) after 45 min.\n(§3) K-PAG activity was assayed, in presence and absence of the inhibitor; using isolated mitochondria from rat intestine and kidney, solubilized with 1% Triton X-100 as a source of glutaminase. Enzymatic activity was measured using a two-step assay as described by Lund. Protein concentration was determined following Bradford method using serum albumin as standard.\nThe first group analysed in this work is integrated by a small molecule compounds library derived from thiourea. […]"}, "[6]": {"system": "swine K-PAG (from kidney)", "assay": "In vitro optimised kinetic assay with increasing inhibitor concentrations", "type": "biochemical", "procedure": "as §3\nFirst, increasing concentration of inhibitors (ranging from 1 µM to 10 mM) were added to standard and optimized enzymatic assay conditions with 99 mmol/l glutamine, 150 mmol/l phosphate and 100 µg K-PAG (Figure 1)."}, "[7]": {"system": "PAG", "assay": "PAG kinetic parameters in absence and presence of THDP-17 (double reciprocal plot)", "type": "biochemical, swine", "procedure": "as §3\nFigure 3 THDP17 inhibition kinetics. A lineal double reciprocal plot (1/v against 1/[Gln]) in absence (0) and presence (10 µM) of the inhibitor is shown. […] All experiments were performed in triplicates; p>0.05."}, "[8]": {"system": "glutaminase activity in Caco2 cells", "assay": "Glutaminase inhibition by metformin in Caco2 cells", "type": "cell-based", "experimental": "6-Diazo-5-oxo-L-norleucine (DON) (0–100 µM) was used as positive control."}, "[9]": {"target": "T2, PAG (Rattus norvegicus, UniProt P13264)", "T2 sequence (P13264 55-674)": "T1 sequence (P13264 55-674)", "assay": "In vitro PAG inhibition by drugs used in HE therapy", "type": "biochemical", "conditions": "for effect on PAG activity in vitro: 10 mM", "procedure": "PAG inhibition analysis by different thiourea derivatives (THDP) was assayed in vitro, using the method of Heini for glutaminase activity determination, adapted to a microtiter procedure. This assay is based on the use of o-phthaldialdehyde/mercaptoethanol as a reagent for estimating ammonia released from glutamine. Briefly, 25 µl samples were added to 35 µl of a mixture of 150 mM potassium phosphate, 171 mM glutamine, 1 mM ammonium chloride, pH 8.0 and then incubated at 37°C for 45 min. The reaction was stopped by adding 10 µl 7% trichloroacetic acid, kept on ice for 15 min and centrifuged 5 min at 1000 × g. Aliquots of 5 µl/well were then mixed with 150 µl o-phthalaldehyde/mercaptoethanol reagent (14.4 ml 200 mM potassium phosphate, pH 7.4, 0.8 ml 72 mM mercaptoethanol in ethanol and 0.8 ml 186 mM o-phthaldialdehyde in ethanol). The samples were kept at room temperature in the dark and absorbance measured at 410 nm with a UV-Visible spectrophotometer (BioRad) after 45 min.\nPAG activity inhibition was analyzed using 10 mM concentration. PAG activity in vitro was no affected by neomycin, lactitol and lactulose, rather, an increased activity was observed."}, "[10]": {"conditions": "fed mice, oral, 50 mg/Kg in DMSO"}, "[11]": {"conditions": "fed mice, oral, 300 mg/Kg in DMSO"}}, "note": "“Also recorded” adds a separate entry of the source. Marks after values point to notes of the source that are not given here."}
{"molecule": "N-(3-methyl-3-butenyl)-N′-phenylthiourea [THDP-17]", "values": [{"measurement": "concentration at which PAG inhibition in cell cultures is effective", "setting": "[1]; Caco-2", "value": "higher than 5 µM"}, {"measurement": "PAG inhibition in cell cultures", "setting": "[1]; Caco-2, 20 µM", "value": "18±2.1", "unit": "%"}, {"measurement": "PAG inhibition in cell cultures", "setting": "[1]; Caco-2, 100 µM", "value": "46±3.4", "unit": "%"}, {"measurement": "cytotoxicity (cell viability)", "setting": "[2]", "value": "did not show cytotoxicity"}, {"measurement": "deaths during the experimental period", "setting": "[3]; fed mice", "value": "no deaths were observed"}, {"measurement": "macroscopic organs analysis", "setting": "[3]; fed mice sacrificed at 24 and 72 h, less pronounced than in fasted group", "value": "gastrointestinal ulcers and duodenum bleeding"}, {"measurement": "Deaths before 6 h", "setting": "[3]; [10]", "value": 0}, {"measurement": "Deaths before 12 h", "setting": "[3]; [10]", "value": 0}, {"measurement": "Deaths before 24 h", "setting": "[3]; [10]", "value": 0}, {"measurement": "Deaths before 12 h", "setting": "[3]; [11]", "value": 0}, {"measurement": "Deaths before 24 h", "setting": "[3]; [11]", "value": 0}, {"measurement": "Deaths before 6 h", "setting": "[3]; fed mice, oral, 300 mg/Kg in DMSO, animal without water", "value": "1 ^*"}, {"measurement": "toxicity in vivo (conclusion)", "setting": "[3]; mice, oral", "value": "no toxic in vivo"}, {"measurement": "macroscopic findings in the gastrointestinal tract", "setting": "[4]; also seen with DMSO vehicle alone", "value": "gastrointestinal ulcers and duodenum bleeding"}, {"measurement": "histopathological damages in lungs, heart or liver", "setting": "[4]; compared to DMSO alone", "value": "No essential or histopathological damages"}, {"measurement": "Deaths before 6 h", "setting": "[4]; 50 mg/Kg in DMSO", "value": 1}, {"measurement": "Deaths before 12 h", "setting": "[4]; 50 mg/Kg in DMSO", "value": 1}, {"measurement": "Deaths before 6 h", "setting": "[4]; 300 mg/Kg in DMSO", "value": 1}, {"measurement": "Deaths before 12 h", "setting": "[4]; 300 mg/Kg in DMSO", "value": 1}, {"measurement": "Deaths before 6 h", "setting": "[4]; 2000 mg/Kg in DMSO", "value": 2}, {"measurement": "Deaths before 12 h", "setting": "[4]; 2000 mg/Kg in DMSO", "value": 1}, {"measurement": "inhibition of intestinal glutaminase activity", "setting": "[5]; THDP-17 10 µM", "value": "57.4±6.7", "unit": "%"}, {"measurement": "inhibition of K-PAG activity (screening result)", "setting": "[5]; thiourea library screening", "value": "could inhibit K-PAG activity"}, {"measurement": "IC50", "setting": "[6]; 99 mmol/l glutamine, 150 mmol/l phosphate, 100 µg K-PAG", "value": "3.9 ± 0.1", "unit": "µM"}, {"measurement": "extent of PAG inhibition at low milimolar concentrations", "setting": "[6]; low milimolar concentrations, plateau", "value": "inhibits PAG activity partially"}, {"measurement": "inhibition model", "setting": "[7]; double reciprocal plot", "value": "not-pure-uncompetitive inhibitor; also recorded: uncompetitive inhibition"}, {"measurement": "Vmax", "setting": "[7]; with THDP-17 10 µM", "value": 384.62, "unit": "µmol/min"}, {"measurement": "Vmax-ap", "setting": "[7]; with THDP-17 10 µM, without inhibitor 0.67 mmol min^-1", "value": 0.38, "unit": "mmol/min"}]}
{"molecule": "CN(C)C(=N)N=C(N)N", "note": "[metformin]", "values": [{"measurement": "inhibition rates at higher concentrations", "setting": "[8]; Caco2, 50, 100 and 200 mM", "value": "did not yield higher inhibition rates"}, {"measurement": "inhibition at 20000 µM", "setting": "[8]; Homo sapiens, Caco-2, 72 h", "value": 24, "unit": "%"}, {"measurement": "inhibition kinetics", "setting": "[9]; Dixon plot", "value": "competitive inhibition kinetics"}, {"measurement": "inhibition at 10000 µM", "setting": "[9]; read-out: PAG inhibition", "value": 17.5, "unit": "%"}, {"measurement": "inhibition at 100000 µM", "setting": "[9]; read-out: PAG inhibition", "value": 68, "unit": "%"}]}
{"molecule": "OC[C@H]1O[C@@H](O[C@@H]2[C@@H](CO)OC(O)(CO)[C@H]2O)[C@H](O)[C@@H](O)[C@H]1O", "note": "(mixture of isomers) [lactulose]", "values": [{"measurement": "effect on PAG activity in vitro", "setting": "[9]", "value": "no affected"}]}
{"molecule": "OC[C@@H](O)[C@@H](O[C@@H]1O[C@H](CO)[C@H](O)[C@H](O)[C@H]1O)[C@H](O)[C@@H](O)CO", "note": "[lactitol]", "values": [{"measurement": "effect on PAG activity in vitro", "setting": "[9]", "value": "no affected"}]}
{"molecule": "neomycin", "values": [{"measurement": "effect on PAG activity in vitro", "setting": "[9]", "value": "no affected"}]}
